{"source": "paper PMC5521794", "about": "“Understanding Russell’s viper venom factor V activator’s substrate specificity by surface plasmon resonance and in-silico studies” (PLoS ONE, 2017)", "key": {"[1]": {"target": "T1, RVV-V (Daboia siamensis, UniProt P18965)", "T1 sequence (P18965 25-260)": "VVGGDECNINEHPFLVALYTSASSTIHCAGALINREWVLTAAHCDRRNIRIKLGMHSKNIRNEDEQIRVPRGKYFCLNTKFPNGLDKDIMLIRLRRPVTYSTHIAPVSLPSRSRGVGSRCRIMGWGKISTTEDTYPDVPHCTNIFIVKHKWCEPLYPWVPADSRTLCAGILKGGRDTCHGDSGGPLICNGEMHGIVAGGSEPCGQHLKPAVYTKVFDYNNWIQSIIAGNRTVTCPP", "conditions": "two-state fit", "experimental": "The Russel viper venom was purchased from Irula Snake-Catchers Industrial Cooperative Society (ISCICS), Tamil Nadu, India. The RVV-V was purified as described by Shiffman et al., with some changes. Lyophilized Crude venom (100 mg) was dissolved in 1 ml of 50 mM Sodium Acetate buffer (pH 5.5). The solution was centrifuged at 12,000 rpm for 10 minutes at 4°C and the supernatant was loaded to Sephadex S-100 column (FPLC). Peaks containing the RVV-V were pooled and loaded for CM Sepharose FFCation Exchange (Pharmacia) column (equilibrated with 50 mM sodium acetate buffer pH 5.5). Proteins were eluted with 50mM Na-acetate buffer with gradient 0 to 1 M Sodium Chloride. The fractions of RVV-V were pooled, dialyzed in 50 mM sodium-acetate buffer, and concentrated. Further, the binding kinetics was performed for RVV-V with both the peptides (purchased from Genei™) by SPR method.\nThe SPR is a well-known primary protein-ligand screening method for the measurement of a real-time, label-free detection of biomolecular interactions like protein-peptide, antibody-antigen, and protein-DNA interactions. A small amount of protein is sufficient and the affinity data are more accurate as the recorded Sensorgram is time-dependent and a continuous flow system. In the experiment the ligand is saturated with an immobilized protein followed by washing, and the association constant (Ka), and the dissociation constant (Kd) are obtained from the binding response data. Biacore T200 optical biosensor was used to get the interaction kinetics of RVV-V with the peptides. The purified RVV-V (concentration of 50 μg/ml in 50 mM sodium acetate buffer, pH 5.5) was immobilized on CM5 chip by amine-coupling method. A constant flow rate of 10μl/min was used to activate the surface of the flow cell for 7 min using a 1:1 mixture of 100 mM N-hydroxysuccinimide (NHS) and 100 mM N-ethyl-N-(dimethylaminopropyl)-carbodiimide (EDC) dissolved in water. The RVV-V was injected for 7 min, and the non-activated carboxy methyl groups on the surface were blocked by 7 min injection of 1 M ethanolamine (pH 8.5) and totally 3000 RU of the RVV-V were immobilized on the chip.\nBiacore control software was used for obtaining all data by monitoring the change in the refractive index as a function of time at a flow rate of 30 μl/min. A relative quantity of peptide bound to RVV-V was quantified by calculating the amount of net increase in the refractive index over a period as compared to the initial buffer (PBS) response. The inline subtraction is performed during each run. Before changing each peptide and the peptide-concentration, the surface of the sensor chips was washed by running the buffer (PBS) and the chip was regenerated by injecting 10 mM glycine pH 2.5 for 30 sec. The association and the dissociation times are 120 and 300 sec respectively. For both the peptides, the experiment was performed by changing the concentration of the peptides ranging from 62.5 uM to 1 mM."}, "[2]": {"conditions": "ref [16], [17]; cited from earlier work", "excerpt": "(§1) Both these proteins are active against different molecular substrates."}, "[3]": {"tested_on": "fibrinogen, prothrombin, factor VIII, and FX", "conditions": "ref [14], [15]; cited from earlier work", "excerpt": "as §1"}, "[4]": {"tested_on": "Factor V", "conditions": "sites I, II and III of FV; ref [11]; cited from earlier work", "excerpt": "Factor V (FV) is a well-studied large protein, consists of six domains, involved in the blood coagulation cascade. […] Both the proteins cleave the FV at three different sites of FV viz., site I (Arg709–Ser710), site II (Arg1018–Thr1019), and site III (Arg1545–Ser1546). Highly glycosylated B domain of FV is removed by these proteases to achieve an active form of FV."}, "[5]": {"target": "T1, RVV-V", "conditions": "ref [16], [17]; cited from earlier work", "excerpt": "In general, serine proteases are robust and highly sensitive for the cleavage sites; they contain catalytic triad or diad in the active site. […] Both these proteins are active against different molecular substrates. The molecular structure and the catalytic triad arrangement of the RVV-V are analogous with that of the thrombin."}}, "note": "Where two headings read alike, the source gives them in different places."}
{"compound": "1008KHTHHAPLSPRTFHP1022 [Peptide II]", "values": [{"measurement": "ka1", "setting": "[1]; Biacore T200, RVV-V immobilized on CM5 chip (amine coupling, 3000 RU), PBS, 30 μl/min, peptide 62.5 uM to 1 mM, association 120 s, dissociation 300 s", "value": 760.4, "unit": "M⁻¹ s⁻¹"}, {"measurement": "Kd1", "setting": "[1]; Biacore T200, RVV-V on CM5 chip, PBS, peptide 62.5 uM to 1 mM, dissociation rate constant of first step", "value": 2.414, "unit": "s⁻¹"}, {"measurement": "kd2", "setting": "[1]; Biacore T200, RVV-V on CM5 chip, PBS, peptide 62.5 uM to 1 mM, second step", "value": 0.001942, "unit": "s⁻¹"}, {"measurement": "ka2", "setting": "[1]; Biacore T200, RVV-V on CM5 chip, PBS, peptide 62.5 uM to 1 mM, second step (conformational change)", "value": 0.0002809, "unit": "s⁻¹"}, {"measurement": "kd1", "setting": "[1]; first (unstable) complex", "value": 2.414, "unit": "s⁻¹"}, {"measurement": "ka1", "setting": "[1]; first reaction", "value": 760.4, "unit": "M⁻¹ s⁻¹"}, {"measurement": "kd2", "setting": "[1]; second (more stable) complex", "value": 0.001942, "unit": "s⁻¹"}, {"measurement": "ka2", "setting": "[1]; second reaction", "value": 0.0002809, "unit": "s⁻¹"}]}
{"compound": "Russell’s viper venom factor V activator [RVV-V]", "values": [{"measurement": "amidase activity", "setting": "[2]", "value": "weak amidase activity"}, {"measurement": "effect on structure or activity after prolonged incubation", "setting": "[3]", "value": "no effect"}, {"measurement": "cleavage of FV sites", "setting": "[4]", "value": "cleaving the site III and does not cleave the other two thrombin-susceptible sites"}]}
{"compound": "O=C(O)CN(CCN(CC(=O)O)CC(=O)O)CC(=O)O", "note": "[EDTA]", "values": [{"measurement": "response of RVV-V to serine protease inhibitor", "setting": "[5]", "value": "no response"}]}
